Paper PMC9289884 (Journal of Medicinal Chemistry, 2022)

Columns and labels:
[1] = target: TbDHFR (Trypanosoma brucei brucei, UniProt Q27783); assay: biochemical
[2] = target: T1, hDHFR (Homo sapiens, UniProt P00374); assay: biochemical; conditions: for hDHFR IC50: off-target
T1 sequence (P00374 1-187): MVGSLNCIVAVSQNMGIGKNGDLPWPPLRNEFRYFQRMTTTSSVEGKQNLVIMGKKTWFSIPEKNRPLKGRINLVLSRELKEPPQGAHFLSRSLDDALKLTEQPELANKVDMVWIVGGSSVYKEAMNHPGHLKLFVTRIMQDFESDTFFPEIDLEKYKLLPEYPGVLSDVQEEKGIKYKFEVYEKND

[3] = target: LmDHFR (Leishmania major, UniProt P07382); assay: biochemical
Sequence of LmDHFR (P07382 whole entry): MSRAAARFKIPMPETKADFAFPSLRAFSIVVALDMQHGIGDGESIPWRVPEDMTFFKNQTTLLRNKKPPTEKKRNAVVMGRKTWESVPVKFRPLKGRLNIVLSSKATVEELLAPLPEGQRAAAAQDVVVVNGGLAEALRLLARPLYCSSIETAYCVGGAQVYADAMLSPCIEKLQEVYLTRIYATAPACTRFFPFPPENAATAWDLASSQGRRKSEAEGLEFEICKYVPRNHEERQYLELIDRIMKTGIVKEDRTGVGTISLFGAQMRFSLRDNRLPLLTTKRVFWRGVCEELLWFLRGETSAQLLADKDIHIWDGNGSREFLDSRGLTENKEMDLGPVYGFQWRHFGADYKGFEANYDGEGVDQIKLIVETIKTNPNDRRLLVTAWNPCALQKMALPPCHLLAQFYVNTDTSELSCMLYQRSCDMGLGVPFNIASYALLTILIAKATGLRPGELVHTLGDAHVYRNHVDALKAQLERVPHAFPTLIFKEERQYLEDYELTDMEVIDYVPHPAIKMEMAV

[4] = target: Leishmania major PTR1 (LmPTR1); conditions: read-out: Ki LmPTR1; cited from earlier work
[5] = target: L. major DHFR (LmDHFR); conditions: read-out: Ki LmDHFR; cited from earlier work
[6] = target: human DHFR (hDHFR); conditions: read-out: Ki hDHFR; cited from earlier work
[7] = test system: T. brucei brucei Lister 427 bloodstream forms; assay: Efficacy against T. brucei bloodstream forms, resazurin-based assay; assay type: cell-based, Trypanosoma brucei brucei; conditions: 72 h; for % inhibition T. brucei at 10 µM ± SD: 10 µM compound, T. brucei brucei Lister 427 bloodstream form; for inhibition at 10 µM: Trypanosoma brucei, read-out: % inhibition T. brucei at 10 µM ± SD
[8] = target: hTS (Homo sapiens, UniProt P04818); assay: biochemical
Sequence of hTS (P04818 whole entry): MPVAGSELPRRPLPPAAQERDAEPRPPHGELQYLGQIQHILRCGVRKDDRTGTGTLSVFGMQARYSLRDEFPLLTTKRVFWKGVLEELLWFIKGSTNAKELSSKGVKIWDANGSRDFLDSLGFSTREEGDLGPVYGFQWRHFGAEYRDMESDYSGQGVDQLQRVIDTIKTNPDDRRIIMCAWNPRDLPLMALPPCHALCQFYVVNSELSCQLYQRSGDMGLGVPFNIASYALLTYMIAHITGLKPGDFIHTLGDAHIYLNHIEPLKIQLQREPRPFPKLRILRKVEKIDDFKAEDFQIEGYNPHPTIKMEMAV

[9] = Cytotoxicity on THP-1-derived macrophages, colorimetric MTT assay; assay type: cell-based; conditions: human
[10] = target: T2, LmPTR1 (Leishmania major, UniProt Q01782); assay: biochemical
T2 sequence (Q01782 1-288): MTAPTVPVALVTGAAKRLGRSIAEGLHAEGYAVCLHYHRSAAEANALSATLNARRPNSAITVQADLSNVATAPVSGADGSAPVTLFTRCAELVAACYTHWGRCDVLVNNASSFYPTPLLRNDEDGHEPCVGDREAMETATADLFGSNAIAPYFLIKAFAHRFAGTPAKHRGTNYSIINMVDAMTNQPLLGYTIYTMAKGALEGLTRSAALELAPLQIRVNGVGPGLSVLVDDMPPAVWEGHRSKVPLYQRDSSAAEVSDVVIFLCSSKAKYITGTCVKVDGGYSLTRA

Sequence of TbDHFR (Q27783 whole entry): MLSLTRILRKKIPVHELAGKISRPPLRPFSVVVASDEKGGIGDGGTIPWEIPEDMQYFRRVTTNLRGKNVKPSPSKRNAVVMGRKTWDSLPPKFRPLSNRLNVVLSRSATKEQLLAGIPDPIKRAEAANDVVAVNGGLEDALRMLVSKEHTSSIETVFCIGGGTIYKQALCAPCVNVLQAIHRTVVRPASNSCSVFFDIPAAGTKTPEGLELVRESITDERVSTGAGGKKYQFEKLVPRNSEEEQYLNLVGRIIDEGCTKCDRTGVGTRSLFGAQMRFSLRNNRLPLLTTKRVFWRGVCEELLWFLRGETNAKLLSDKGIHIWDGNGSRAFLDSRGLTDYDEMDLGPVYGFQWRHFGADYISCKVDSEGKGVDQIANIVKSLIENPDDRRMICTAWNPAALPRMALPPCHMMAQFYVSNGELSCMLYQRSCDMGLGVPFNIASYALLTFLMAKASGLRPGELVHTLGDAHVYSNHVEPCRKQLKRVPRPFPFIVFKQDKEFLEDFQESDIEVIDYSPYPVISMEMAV

SMILES: Nc1nc(N)c2nc(CNc3cccc4ccccc34)cnc2n1 [Compound 3c]
- IC50 [1]: 500 nM
- IC50 [2]: 4000 nM

SMILES: Nc1nc(N)c2nc(C(=O)NCc3ccccc3)cnc2n1 [Compound 3d]
- TbDHFR IC50 [1]: do not show inhibitory activity
- LmDHFR IC50 [3]: do not show inhibitory activity

SMILES: COC(=O)C1CCN(C(=O)c2ccc(NCc3cnc4nc(N)nc(N)c4n3)cc2)CC1 [Compound 1c, methyl-1-(4-(((2,4-diaminopteridin-6-yl)methyl)amino)benzoyl)piperidine-4-carboxylate]
- Ki [4]: 100 nM
- Ki [5]: 4000 nM
- Ki [6]: 10000 nM

SMILES: COc1cc(Oc2ccc(CNCc3cnc4nc(N)nc(N)c4n3)cc2)cc(OC)c1OC [Compound 4j]
- % inhibition T. brucei at 10 µM ± SD [7]: inactive

SMILES: Nc1nc(N)c2nc(CNCc3ccc(Oc4ccccc4)cc3)cnc2n1 [Compound 4h]
- % inhibition T. brucei at 10 µM ± SD [7]: inactive

SMILES: NC(=O)C1CCCN1C(=O)Cc1ccc(N(CCCO)Cc2cnc3nc(N)nc(N)c3n2)cc1 (centres unmarked) [Compound 5b]
- hDHFR IC50 [2]: inactive
- IC50 [8]: 29000 nM

SMILES: COc1ccc(Oc2ccc(CN(Cc3ccccc3)Cc3cnc4nc(N)nc(N)c4n3)cc2)cc1 [Compound 5e]
- CC50 [9]: 12500 to 25000 nM

SMILES: CCN(Cc1cnc2nc(N)nc(N)c2n1)c1ccc(C(=O)c2ccccc2)cc1 [Compound 5d]
- CC50 [9]: 25000 to 50000 nM

SMILES: COc1ccc(CNC(=O)c2ccc(CNCc3cnc4nc(N)nc(N)c4n3)cc2)cc1 [Compound 4f]
- % inhibition T. brucei at 10 µM ± SD [7]: inactive

SMILES: COc1ccc(Oc2ccc(CNCc3cnc4nc(N)nc(N)c4n3)cc2)cc1 [Compound 4i]
- TbDHFR IC50 [1]: inactive
- LmDHFR IC50 [3]: inactive
- hDHFR IC50 [2]: inactive

SMILES: COc1ccc(Oc2ccc(CN(C)Cc3cnc4nc(N)nc(N)c4n3)cc2)cc1 [Compound 5f]
- CC50 [9]: 12500 to 25000 nM

SMILES: COC(=O)C1CCN(C(=O)c2ccc(N(Cc3ccccc3)Cc3cnc4nc(N)nc(N)c4n3)cc2)CC1 [Compound 2c]
- IC50 [1]: ~1000 nM
- inhibition at 10 µM [7]: 75%

SMILES: COC(=O)C1CCN(C(=O)c2ccc(N(C)Cc3cnc4nc(N)nc(N)c4n3)cc2)CC1 [Compound 1b, methyl-1-(4-(((2,4-diaminopteridin-6-yl)methyl)(methyl)amino)benzoyl)piperidine-4-carboxylate, reference compound]
- IC50 [1]: 300 nM
- IC50 [3]: 300 nM
- Ki [4]: 40 nM

SMILES: Nc1nc(N)c2nc(C(=O)NCc3cccc(C(F)(F)F)c3)cnc2n1 [Compound 3e]
- TbDHFR IC50 [1]: do not show inhibitory activity
- LmDHFR IC50 [3]: do not show inhibitory activity

SMILES: CCOC(=O)C1CCN(C(=O)c2ccc(N(C)Cc3cnc4nc(N)nc(N)c4n3)cc2)CC1 [Compound 4a]
- IC50 [3]: 100 nM

SMILES: CN(Cc1cnc2nc(N)nc(N)c2n1)c1ccc(C(=O)N2CCCCC2)cc1 [Compound 4c]
- IC50 [10]: 100 nM

SMILES: Nc1nc(N)c2nc(CNc3ccc(C(=O)NCCc4ccccc4)cc3)cnc2n1 [Compound 4e]
- inhibition at 10 µM [7]: 40%

SMILES: CCOC(=O)C1CCN(C(=O)c2ccc(N(CC)Cc3cnc4nc(N)nc(N)c4n3)cc2)CC1 [Compound 5c]
- IC50 [3]: 200 nM
